The numbers were not newly measured in patent publication US12455270B2, “Mesh for dissolution test” (Shionogi & Co., Ltd., priority 2019, dated 2025), which cites them from elsewhere.

As a reminder, the logP is the decadic logarithm of the partition coefficient of the neutral form, usually between octanol and water.

The conditions of data set [1]: input parameter of GastroPlus simulation.
The conditions of data set [2]: input parameter of GastroPlus simulation. This is another data set of the same source.

As for `NC(=O)N1c2ccccc2C=Cc2ccccc21` [Carbamazepine], the lipophilicity (logP) in data set [1] is 1.8. Further, in data set [2], the CL is reported as 0.9087 L/h, the “Plasma Fup” value is on record as 28.8%, the Vc is reported as 0.6971 L/kg and the k12 is 0.165 h⁻¹.

As to `Cc1ccc(-c2cc(C(F)(F)F)nn2-c2ccc(S(N)(=O)=O)cc2)cc1` [Celecoxib], in data set [1], the logP is 4.21. In data set [2], the CL is reported as 28.558 L/h, the “Plasma Fup” value was 2.1%, the Vc is listed as 1.0902 L/kg and the k12 is 0.1955 h⁻¹. For the same molecule, the k21 in data set [2] is 0.07268 h⁻¹.
